Reference: BindingDB's records for doi:10.1021/acschembio.6b00156 (Helmholtz-Institute For Pharmaceutical Research Saarland, 2016)

Molecular target: Quinolone signal response protein (Pseudomonas aeruginosa, UniProt A0A072ZMX8)
Experiment: Isothermal Titration Calorimetry (ITC)
Conditions: 14 °C
Experimental: ITC titrations were performed using an ITC200 instrument (Microcal Inc.,Malvern). DMSO stock solutions (20 mM) of fragments were diluted 1:20 (v/v) into ITC titration buffer (50 mM tricine, 2 mM MnCl2, pH = 8.5) to give a 1 mM final compound concentration at 5% (v/v) DMSO. Aliquots of the same buffer batch (stored at […]) were used as for protein storage to avoid a buffer mismatch. H6PqsE was diluted in the same buffer to 100 μM, and DMSO concentration was adjusted to 5% (v/v). Titrations were carried out at 298 K using 19 injections of 2 μL every 180 s. Areas under the peaks were integrated. Baseline peaks at the endof a titration accounting for the heat of dilution and mixing were subtracted from the measurement. Data were fitted to a 1:1 binding model (MicroCal Origin 7 software).

Quinolone signal response protein, sequence (A0A072ZMX8 whole entry): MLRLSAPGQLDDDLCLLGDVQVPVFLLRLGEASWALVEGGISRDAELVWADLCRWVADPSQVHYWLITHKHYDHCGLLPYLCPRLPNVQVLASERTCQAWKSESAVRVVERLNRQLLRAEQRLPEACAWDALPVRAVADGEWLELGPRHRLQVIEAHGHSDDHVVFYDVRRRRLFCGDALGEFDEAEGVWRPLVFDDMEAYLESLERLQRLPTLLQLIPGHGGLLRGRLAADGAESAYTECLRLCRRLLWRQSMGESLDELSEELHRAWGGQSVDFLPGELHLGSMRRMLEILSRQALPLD

Kd [µM] | Structure (SMILES)
19.6 | Cc1ccsc1C(=O)O [AC30341 (3)]
0.9 | O=C(O)c1ccccc1-c1cccnc1 [CC41801 (1)]
